Reference: ChEMBL document CHEMBL1201862, “PubChem BioAssay data set” (2004)
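These data come from cells grown in 96-well plates and exposed to compound for 48 hours at five concentrations. At the GI50, growth is halved.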 The source made the active and inactive calls. Cut-off read from the data, not from the text of the source: active = GI50 up to about 1.1 µM and inactive = higher.

Tests used:
Assay in all cases: inhibition of tumour cell growth, NCI panel, 48 h
COLO 205 = system: COLO 205
EKVX = system: EKVX
HL-60 = system: HL-60
HOP-62 = system: HOP-62
IGROV-1 = system: IGROV-1
KM-20L2 = system: KM-20L2
KM12 = system: KM12
LOX IMVI = system: LOX IMVI
M14 = system: M14
M19-MEL = system: M19-MEL
NCI-H226 = system: NCI-H226
OVCAR-3 = system: OVCAR-3
SK-MEL-28 = system: SK-MEL-28
SK-MEL-5 = system: SK-MEL-5
SK-OV-3 = system: SK-OV-3
UO-31 = system: UO-31
CCRF-CEM = system: CCRF-CEM
UACC-62 = system: UACC-62
DU-145 = system: DU-145
T47D = system: T47D

Measured: GI50

N#Cc1c(CC(=O)O)cc(=O)n2c1[nH]c1ccccc12
inactive: COLO 205 > 100 µM | EKVX > 100 µM | HL-60 > 100 µM | HOP-62 > 100 µM | IGROV-1 > 100 µM | KM-20L2 > 100 µM | KM12 > 100 µM | LOX IMVI > 100 µM | M14 > 100 µM | M19-MEL > 100 µM | NCI-H226 > 100 µM | OVCAR-3 > 100 µM | SK-MEL-28 > 100 µM | SK-MEL-5 > 100 µM | SK-OV-3 > 100 µM | UO-31 > 100 µM

NNC(=O)/C(=C/c1ccc(Cl)cc1Cl)NC(=O)c1ccccc1
inactive: CCRF-CEM 79.8 µM | COLO 205 > 100 µM | HL-60 > 100 µM | HOP-62 > 100 µM | IGROV-1 > 100 µM | KM12 > 100 µM | LOX IMVI > 100 µM | M14 > 100 µM | M19-MEL > 100 µM | NCI-H226 > 100 µM | OVCAR-3 > 100 µM | SK-MEL-28 > 100 µM | SK-MEL-5 > 100 µM | SK-OV-3 > 100 µM | UACC-62 41 µM | UO-31 > 100 µM
active: EKVX < 0.01 µM

O=C1CNC(=O)c2[nH]cnc2N1
inactive: CCRF-CEM > 100 µM | COLO 205 > 100 µM | EKVX > 100 µM | HL-60 > 100 µM | IGROV-1 > 100 µM | KM12 > 100 µM | LOX IMVI > 100 µM | M14 > 100 µM | M19-MEL > 100 µM | NCI-H226 > 100 µM | OVCAR-3 > 100 µM | SK-MEL-28 > 100 µM | SK-MEL-5 > 100 µM | SK-OV-3 > 100 µM | UACC-62 > 100 µM | UO-31 > 100 µM

CN1C(c2ccccc2)CS(=O)(=O)CS1(=O)=O (stereo not drawn)
inactive: COLO 205 > 100 µM | EKVX > 100 µM | HOP-62 > 100 µM | IGROV-1 > 100 µM | KM-20L2 > 100 µM | KM12 > 100 µM | LOX IMVI > 100 µM | M14 > 100 µM | M19-MEL > 100 µM | OVCAR-3 30.1 µM | SK-MEL-28 > 100 µM | SK-MEL-5 > 100 µM | SK-OV-3 > 100 µM | UACC-62 > 100 µM | UO-31 > 100 µM

O=C1c2ccccc2C(=O)c2cc3c(cc21)C[S+]([O-])C3
inactive: CCRF-CEM > 100 µM | COLO 205 > 100 µM | EKVX > 100 µM | HL-60 > 100 µM | HOP-62 > 100 µM | IGROV-1 > 100 µM | KM-20L2 > 100 µM | KM12 > 100 µM | LOX IMVI > 100 µM | M14 > 100 µM | M19-MEL > 100 µM | OVCAR-3 > 100 µM | SK-MEL-28 > 100 µM | SK-MEL-5 > 100 µM | SK-OV-3 > 100 µM | UACC-62 > 100 µM | UO-31 > 100 µM

CS(=O)(=O)OCCN1CCN(C(=O)c2cccc3c(Nc4ccc(S(=O)(=O)N=C(N)N)cc4)c4ccccc4nc23)CC1
inactive: CCRF-CEM > 100 µM | COLO 205 > 100 µM | HL-60 > 100 µM | HOP-62 > 100 µM | IGROV-1 > 100 µM | KM-20L2 > 100 µM | KM12 > 100 µM | M14 > 100 µM | M19-MEL > 100 µM | NCI-H226 > 100 µM | OVCAR-3 > 100 µM | SK-MEL-28 > 100 µM | SK-MEL-5 > 100 µM | SK-OV-3 > 100 µM | UACC-62 > 100 µM | UO-31 > 100 µM

CC(=O)NC(CCCCNC(=O)N(C)N=O)C(=O)NCc1ccccc1 (stereo not drawn)
inactive: CCRF-CEM > 100 µM | COLO 205 > 100 µM | EKVX > 100 µM | HOP-62 > 100 µM | IGROV-1 > 100 µM | KM-20L2 > 100 µM | KM12 > 100 µM | LOX IMVI > 100 µM | M14 > 100 µM | M19-MEL > 100 µM | NCI-H226 > 100 µM | OVCAR-3 > 100 µM | SK-MEL-28 > 100 µM | SK-MEL-5 > 100 µM | SK-OV-3 > 100 µM | UACC-62 > 100 µM | UO-31 > 100 µM

COc1cc(CCC(=O)NS(=O)(=O)c2ccccc2)cc(OC)c1OC
inactive: CCRF-CEM > 100 µM | COLO 205 > 100 µM | EKVX > 100 µM | HL-60 > 100 µM | HOP-62 > 100 µM | IGROV-1 > 100 µM | KM-20L2 > 100 µM | KM12 > 100 µM | LOX IMVI > 100 µM | M14 > 100 µM | NCI-H226 > 100 µM | OVCAR-3 > 100 µM | SK-MEL-28 > 100 µM | SK-OV-3 > 100 µM | UACC-62 > 100 µM | UO-31 > 100 µM

CCN(CC)CCCNc1nccc2c(C)c3c(cc12)c1cnccc1n3C
active: CCRF-CEM < 0.01 µM | COLO 205 0.249 µM | EKVX 0.294 µM | HOP-62 0.116 µM | IGROV-1 0.4 µM | KM-20L2 0.0682 µM | LOX IMVI 0.0711 µM | M14 0.26 µM | M19-MEL 0.48 µM | OVCAR-3 0.237 µM | SK-MEL-28 0.403 µM | SK-MEL-5 0.431 µM | SK-OV-3 0.377 µM | UACC-62 0.891 µM | UO-31 0.748 µM

COC1=CC(=O)c2ccc(C(C)C)cc2C1(C)C1=NC(C)(C)CO1 (stereo not drawn)
inactive: CCRF-CEM > 100 µM | COLO 205 > 100 µM | EKVX > 100 µM | HL-60 63 µM | HOP-62 > 100 µM | IGROV-1 > 100 µM | KM-20L2 > 100 µM | KM12 > 100 µM | M14 > 100 µM | M19-MEL > 100 µM | NCI-H226 > 100 µM | OVCAR-3 > 100 µM | SK-MEL-28 > 100 µM | SK-MEL-5 > 100 µM | SK-OV-3 > 100 µM | UACC-62 > 100 µM | UO-31 > 100 µM

Cc1cn(C2CC(n3cc(Cn4cc(F)c(=O)[nH]c4=O)nn3)C(CO)O2)c(=O)[nH]c1=O (stereo not drawn)
inactive: CCRF-CEM > 100 µM | COLO 205 > 100 µM | DU-145 > 100 µM | EKVX > 100 µM | HL-60 43.7 µM | HOP-62 > 100 µM | IGROV-1 > 100 µM | KM12 > 100 µM | LOX IMVI > 100 µM | M14 > 100 µM | NCI-H226 > 100 µM | OVCAR-3 > 100 µM | SK-MEL-28 > 100 µM | SK-MEL-5 > 100 µM | SK-OV-3 > 100 µM | T47D > 100 µM | UACC-62 > 100 µM | UO-31 > 100 µM

CSCCC(C(=O)O)N(CC1(O)OCC(O)C(O)C1O)N=O (stereo not drawn)
inactive: CCRF-CEM > 100 µM | COLO 205 > 100 µM | EKVX > 100 µM | HL-60 > 100 µM | HOP-62 > 100 µM | IGROV-1 > 100 µM | KM-20L2 > 100 µM | KM12 > 100 µM | LOX IMVI > 100 µM | M14 > 100 µM | M19-MEL > 100 µM | OVCAR-3 > 100 µM | SK-MEL-28 > 100 µM | SK-MEL-5 > 100 µM | SK-OV-3 > 100 µM | UACC-62 > 100 µM | UO-31 > 100 µM

COC(=O)c1cc(C)ccc1C1CN=NC12Cc1c(C)cc(C)cc1C2=O (stereo not drawn)
inactive: CCRF-CEM 26.5 µM | COLO 205 16.7 µM | DU-145 28.4 µM | EKVX 33.5 µM | HL-60 6.1 µM | HOP-62 29 µM | IGROV-1 38.2 µM | KM12 16.5 µM | LOX IMVI 15.1 µM | M14 17 µM | NCI-H226 35.8 µM | OVCAR-3 14.9 µM | SK-MEL-28 51.1 µM | SK-MEL-5 17 µM | SK-OV-3 17 µM | T47D 31 µM | UACC-62 16.9 µM | UO-31 23 µM

COc1ccc(C(OCC2OC3(COC(c4ccccc4)(c4ccc(OC)cc4)c4ccc(OC)cc4)C(Oc4nc(=O)ccn43)C2O)(c2ccccc2)c2ccc(OC)cc2)cc1 (stereo not drawn)
inactive: CCRF-CEM > 100 µM | COLO 205 > 100 µM | DU-145 > 100 µM | EKVX > 100 µM | HL-60 > 100 µM | HOP-62 > 100 µM | IGROV-1 > 100 µM | KM12 > 100 µM | LOX IMVI > 100 µM | M14 > 100 µM | NCI-H226 > 100 µM | OVCAR-3 > 100 µM | SK-MEL-28 > 100 µM | SK-MEL-5 > 100 µM | SK-OV-3 > 100 µM | T47D > 100 µM | UACC-62 > 100 µM | UO-31 > 100 µM

CCOC(=O)C(Oc1ccc(OC)c2c1C(=O)CCC2)c1ccccc1 (stereo not drawn)
inactive: CCRF-CEM 65.5 µM | COLO 205 > 100 µM | EKVX 50.2 µM | HL-60 49 µM | HOP-62 > 100 µM | IGROV-1 > 100 µM | KM-20L2 > 100 µM | KM12 > 100 µM | LOX IMVI > 100 µM | M14 > 100 µM | M19-MEL > 100 µM | OVCAR-3 > 100 µM | SK-MEL-28 > 100 µM | SK-MEL-5 43.2 µM | SK-OV-3 > 100 µM | UACC-62 69.3 µM | UO-31 53.2 µM

CCOC(=O)C(C(=S)SC)c1nn2c(=O)cc(C)nc2s1 (stereo not drawn)
inactive: CCRF-CEM 29.4 µM | COLO 205 24.6 µM | DU-145 17.9 µM | EKVX 18.8 µM | HL-60 18.1 µM | HOP-62 22.4 µM | IGROV-1 19.6 µM | KM12 26.2 µM | LOX IMVI 15.9 µM | M14 15.6 µM | NCI-H226 17.9 µM | OVCAR-3 20.2 µM | SK-MEL-28 18.8 µM | SK-MEL-5 18.7 µM | SK-OV-3 22.9 µM | T47D 19 µM | UACC-62 20.4 µM | UO-31 23 µM
